Patent US20250043299A1, “POINT MUTATIONS THAT BOOST AROMATIC AMINO ACID PRODUCTION AND CO2 ASSIMILATION IN PLANTS” (Wisconsin Alumni Research Foundation, priority 2021, published 2025)
Like-named read-outs stand apart in the source and are kept apart here.

Columns and labels:
DHS1^WT [1] = target: T1, DHS1^WT (Arabidopsis thaliana, UniProt P29976); assay: DHS enzyme assay (colorimetric), recombinant DHS1^WT; assay type: biochemical; settings: for effect on DHS1 activity (effector screening): FIG. 2D
T1 construct: without the predicted plastid transit peptide (amino acid residues; 49-525, 34-507, and 52-527, respectively); made in house; host or cells: E. coli Rosetta-2
Method: (§1) To generate recombinant DHS proteins the pET28a vectors carrying the A. thaliana DHS1 (AtDHS1), AtDHS2, or AtDHS3 WT sequence without the predicted plastid transit peptide (amino acid residues; 49-525, 34-507, and 52-527, respectively) were expressed in E. coli Rosetta-2 cells and purified using Ni-affinity chromatography, exactly as was conducted previously (9). To generate DHS proteins with individual sota mutations via site-directed mutagenesis, these pET28a plasmid templates were diluted by 500-fold, mixed with 0.04 U/μL Phusion DNA polymerase (Thermo Scientific), 0.2 mM deoxynucleoside triphosphates (dNTPs), 1× Phusion reaction buffer (Thermo Scientific), and 0.5 μM forward and reverse mutagenesis primers (Table 10). The PCR reaction was run using the following protocol: 98° C. for 30 s followed by 20 cycles of 10 s at 98° C., 20 s at 70° C., 4.5 min at 72° C. with a final extension at 72° C. for 10 min. The PCR products were purified using a QIAquick Gel Extraction Kit (QIAGEN), treated with FastDigest DpnI (Thermo Scientific) to digest methylated plasmid template DNA for 20 min at 37° C., and transformed into E. coli cells. The mutagenized pET28a plasmids were sequenced to confirm that no errors were introduced during the mutagenesis process.
(§2) The DHS enzyme assays were conducted using the colorimetric method that we recently described (9). Briefly, the enzyme solution (7.7 μl) containing 50 mM Hepes (pH 7.4) was preincubated with an effector molecule(s) at room temperature for 15 min. For assays using recombinant protein and enzyme fractions isolated from plant leaves, 0.01 to 0.1 μg and approximately 50 μg of proteins were used, respectively. After adding 0.5 μl of 0.1 M dithiothreitol, the samples were further incubated at room temperature for 15 min. During these incubations, the substrate solution containing 50 mM Hepes (pH 7.4), 2 mM MnCl2, 4 mM E4P, and 4 mM PEP at final concentration was preheated at 37° C. The enzyme reaction was started by adding 6.8 μl of the substrate solution, then incubated at 37° C. for 30 min, and terminated by adding 30 μl of 0.6 M trichloroacetic acid. After a brief centrifugation, 5 μl of 200 mM NaIO4 (sodium meta-periodate) in 9 N H3PO4 was added to oxidize the enzymatic product and to incubate at 25° C. for 20 min. To stop the oxidation reaction, 20 μl of 0.75 M NaAsO2 (sodium arsenite), which was dissolved in 0.5 M Na2SO4 and 0.05 M H2SO4, was added and immediately mixed. After 5 min of incubation at room temperature, one-third of the sample solution was transferred to a new tube to be mixed with 50 μl of 40 mM thiobarbituric acid and incubated at 99° C. for 15 min in a thermal cycler. The mixture was added to 600 μl of cyclohexanone in eight-strip solvent-resistant plastic tubes, mixed vigorously, and centrifuged at 4500 g for 3 min to separate water- and cyclohexanone-based layers for the extraction off the developed pink chromophore. The absorbance of the pink supernatant was read at 549 nm with the microplate reader (Infinite 200 PRO, TECAN) to calculate DAHP production with the molar extinction coefficient at 549 nm (ε=549 nm) of 4.5×10^4 M^−1 cm^−1. Reaction mixtures with boiled enzymes were run in parallel and used as negative controls to estimate the background signal.

DHS2^WT [2] = target: T2, DHS2^WT (Arabidopsis thaliana, UniProt Q00218); assay: DHS enzyme assay, recombinant DHS2^WT; assay type: biochemical; settings: FIG. 2D
T2 construct: without the predicted plastid transit peptide (amino acid residues; 49-525, 34-507, and 52-527, respectively); made in house; host or cells: E. coli Rosetta-2
Method: as §1, §2

DHS1^WT [3] = target: T1, DHS1^WT; settings: AAAs, chorismate, caffeate: from Yokoyama et al., Plant Cell, 2021, cited from earlier work
[4] = target: T3, Arabidopsis thaliana DHS1 (SEQ ID NO:1) variant DHS1^B4 (sotaB4), G244R (Arabidopsis thaliana, UniProt P29976, G244R); assay: DHS enzyme assay with effector, DHS1 sotaB4; assay type: biochemical
T3 construct: without the predicted plastid transit peptide (amino acid residues; 49-525, 34-507, and 52-527, respectively); made in house; host or cells: E. coli
Method: as §1, §2

DHS1^B4 = target: T4, DHS1^B4 (Arabidopsis thaliana, UniProt P29976, G244R); assay: DHS enzyme assay, recombinant DHS1^B4; assay type: biochemical
T4 construct: without the predicted plastid transit peptide (amino acid residues; 49-525, 34-507, and 52-527, respectively); made in house; host or cells: E. coli
Method: as §1, §2

DHS2^A4 = target: T5, DHS2^A4 (Arabidopsis thaliana, UniProt Q00218, G222S); assay: Differential scanning fluorimetry (DSF) protein-ligand affinity analysis, DHS2^A4; assay type: binding; settings: ligand at 1 mM
T5 construct: without the predicted plastid transit peptide (amino acid residues; 49-525, 34-507, and 52-527, respectively); made in house; host or cells: E. coli
Method: (§3) To examine the impact of the sota mutations on the interaction between DHS and AAA effectors (FIG. 22), a differential scanning fluorimetry (DSF) analysis (48) was conducted using the recombinant DHS2^WT and DHS2^A4 proteins. […] The fluorescence signal was monitored during the stepwise increase in temperature (1° C. per minute from 25° C. to 95° C.). The Tm was calculated by nonlinear regression analysis using the Boltzmann sigmoidal equation (48).

DHS2^WT [5] = target: T2, DHS2^WT; assay: Differential scanning fluorimetry (DSF) protein-ligand affinity analysis, DHS2^WT; assay type: binding; settings: ligand at 1 mM
Method: as §3

[6] = target: T6, Arabidopsis thaliana DHS2 (SEQ ID NO:2) variant DHS2^A4 (sotaA4), G222S (Arabidopsis thaliana, UniProt Q00218, G222S); assay: Differential scanning fluorimetry protein-ligand affinity analysis, DHS2 sotaA4; assay type: binding; settings: ligand at 1 mM
T6 construct: without the predicted plastid transit peptide (amino acid residues; 49-525, 34-507, and 52-527, respectively); made in house; host or cells: E. coli
Method: (A) Simplified pathway map of AAAs and AAA-derived metabolites used in the effector screening. […] Data are means±SEM (n=3 independent assays).
as §3

DHS2^F1 = target: T7, DHS2^F1 (Arabidopsis thaliana, UniProt Q00218, L136F); assay: DHS enzyme assay, recombinant DHS2^F1; assay type: biochemical; settings: effector up to 1 mM
T7 construct: without the predicted plastid transit peptide (amino acid residues; 49-525, 34-507, and 52-527, respectively); made in house; host or cells: E. coli
Method: as §1, §2

DHS2^A11 = target: T8, DHS2^A11 (Arabidopsis thaliana, UniProt Q00218, A224T); assay: DHS enzyme assay, recombinant DHS2^A11; assay type: biochemical; settings: effector up to 1 mM
T8 construct: without the predicted plastid transit peptide (amino acid residues; 49-525, 34-507, and 52-527, respectively); made in house; host or cells: E. coli
Method: as §1, §2

DHS3^WT = settings: AAAs: from Yokoyama et al., Plant Cell, 2021; cited from earlier work
DHS3^G1 = assay: DHS enzyme assay, recombinant DHS3^G1; assay type: biochemical, Arabidopsis thaliana
Method: as §1, with “To” for “To generate recombinant DHS proteins the pET28a vectors carrying the A. thaliana DHS1 (AtDHS1), AtDHS2, or AtDHS3 WT sequence without the predicted plastid transit peptide (amino acid residues; 49-525, 34-507, and 52-527, respectively) were expressed in E. coli Rosetta-2 cells and purified using Ni-affinity chromatography, exactly as was conducted previously (9). To”
(§4) The DHS enzyme assays were conducted using the colorimetric method that we recently described (9). Briefly, the enzyme solution (7.7 μl) containing 50 mM Hepes (pH 7.4) was preincubated with an effector molecule(s) at room temperature for 15 min. For assays using recombinant protein and enzyme fractions isolated from plant leaves, 0.01 to 0.1 μg and approximately 50 μg of proteins were used, respectively. After adding 0.5 μl of 0.1 M dithiothreitol, the samples were further incubated at room temperature for 15 min. During these incubations, the substrate solution containing 50 mM Hepes (pH 7.4), 2 mM MnCl2, 4 mM E4P, and 4 mM PEP at final concentration was preheated at 37° C. The enzyme reaction was started by adding 6.8 μl of the substrate solution, then incubated at 37° C. for 30 min, and terminated by adding 30 μl of 0.6 M trichloroacetic acid. After a brief centrifugation, 5 μl of 200 mM NaIO4 (sodium meta-periodate) in 9 N H3PO4 was added to oxidize the enzymatic product and to incubate at 25° C. for 20 min. To stop the oxidation reaction, 20 μl of 0.75 M NaAsO2 (sodium arsenite), which was dissolved in 0.5 M Na2SO4 and 0.05 M H2SO4, was added and immediately mixed. […]

DHS3^H1 = assay: DHS enzyme assay, recombinant DHS3^H1; assay type: biochemical, Arabidopsis thaliana
Method: as §1, with “To” for “To generate recombinant DHS proteins the pET28a vectors carrying the A. thaliana DHS1 (AtDHS1), AtDHS2, or AtDHS3 WT sequence without the predicted plastid transit peptide (amino acid residues; 49-525, 34-507, and 52-527, respectively) were expressed in E. coli Rosetta-2 cells and purified using Ni-affinity chromatography, exactly as was conducted previously (9). To”
as §4

[7] = target: T9, Arabidopsis thaliana DHS2 (AtDHS2), wild type (DHS2^WT), SEQ ID NO:2 (Arabidopsis thaliana, UniProt Q00218); settings: reference 9; cited from earlier work
T9 construct: without the predicted plastid transit peptide (amino acid residues; 49-525, 34-507, and 52-527, respectively); made in house; host or cells: E. coli Rosetta-2
T9 sequence (Q00218 34-507): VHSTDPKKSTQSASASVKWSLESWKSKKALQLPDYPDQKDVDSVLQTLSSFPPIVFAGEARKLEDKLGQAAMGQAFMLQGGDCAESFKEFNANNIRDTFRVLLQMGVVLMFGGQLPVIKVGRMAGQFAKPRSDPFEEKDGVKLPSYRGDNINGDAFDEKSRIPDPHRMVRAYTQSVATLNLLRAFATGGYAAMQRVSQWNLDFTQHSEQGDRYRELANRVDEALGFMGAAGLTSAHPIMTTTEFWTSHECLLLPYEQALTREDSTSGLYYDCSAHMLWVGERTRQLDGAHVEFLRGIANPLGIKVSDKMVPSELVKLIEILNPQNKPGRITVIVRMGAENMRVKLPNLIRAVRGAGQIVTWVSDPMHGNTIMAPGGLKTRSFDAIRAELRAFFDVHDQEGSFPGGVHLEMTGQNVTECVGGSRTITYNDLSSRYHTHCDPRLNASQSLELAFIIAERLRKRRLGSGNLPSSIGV

T1 sequence (P29976 49-525): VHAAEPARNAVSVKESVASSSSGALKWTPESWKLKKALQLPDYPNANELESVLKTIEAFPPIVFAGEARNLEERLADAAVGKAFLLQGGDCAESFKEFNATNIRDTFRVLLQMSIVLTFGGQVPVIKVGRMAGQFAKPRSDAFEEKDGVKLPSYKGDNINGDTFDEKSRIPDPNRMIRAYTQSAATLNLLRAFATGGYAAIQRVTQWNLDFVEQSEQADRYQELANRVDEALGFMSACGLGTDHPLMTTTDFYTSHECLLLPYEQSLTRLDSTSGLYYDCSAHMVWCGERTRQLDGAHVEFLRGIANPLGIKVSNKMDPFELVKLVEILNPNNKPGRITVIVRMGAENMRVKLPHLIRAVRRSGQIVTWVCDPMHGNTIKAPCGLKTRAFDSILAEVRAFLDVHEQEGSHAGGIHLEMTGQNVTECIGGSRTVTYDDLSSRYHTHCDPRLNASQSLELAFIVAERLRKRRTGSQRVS
T2 sequence (Q00218 34-507): as the sequence (Q00218 34-507) above
T4 sequence (P29976 49-525 G244R): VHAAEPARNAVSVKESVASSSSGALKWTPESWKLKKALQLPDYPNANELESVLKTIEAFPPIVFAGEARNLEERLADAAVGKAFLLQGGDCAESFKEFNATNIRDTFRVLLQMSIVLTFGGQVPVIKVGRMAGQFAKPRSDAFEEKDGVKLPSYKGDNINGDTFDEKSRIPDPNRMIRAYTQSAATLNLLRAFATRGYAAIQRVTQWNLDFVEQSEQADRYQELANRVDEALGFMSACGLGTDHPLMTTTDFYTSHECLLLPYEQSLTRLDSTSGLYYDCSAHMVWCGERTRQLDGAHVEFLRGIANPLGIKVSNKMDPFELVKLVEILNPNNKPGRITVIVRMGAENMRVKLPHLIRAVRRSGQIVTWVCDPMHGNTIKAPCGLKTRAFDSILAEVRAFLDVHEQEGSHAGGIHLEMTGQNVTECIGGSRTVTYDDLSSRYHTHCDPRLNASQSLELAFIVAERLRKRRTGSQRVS
T8 sequence (Q00218 34-507 A224T): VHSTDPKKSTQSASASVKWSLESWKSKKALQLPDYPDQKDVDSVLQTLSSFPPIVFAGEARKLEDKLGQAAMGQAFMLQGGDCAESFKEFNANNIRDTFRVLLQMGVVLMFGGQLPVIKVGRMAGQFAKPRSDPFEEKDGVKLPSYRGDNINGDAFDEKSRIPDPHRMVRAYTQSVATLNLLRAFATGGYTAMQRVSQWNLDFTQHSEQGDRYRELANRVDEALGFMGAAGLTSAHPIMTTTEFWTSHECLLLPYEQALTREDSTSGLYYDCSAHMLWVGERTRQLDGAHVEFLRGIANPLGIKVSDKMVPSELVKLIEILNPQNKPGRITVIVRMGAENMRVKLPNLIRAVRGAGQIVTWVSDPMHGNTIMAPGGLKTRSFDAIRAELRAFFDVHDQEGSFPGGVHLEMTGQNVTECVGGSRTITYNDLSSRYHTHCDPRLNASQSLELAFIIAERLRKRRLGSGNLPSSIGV
T5 sequence (Q00218 34-507 G222S): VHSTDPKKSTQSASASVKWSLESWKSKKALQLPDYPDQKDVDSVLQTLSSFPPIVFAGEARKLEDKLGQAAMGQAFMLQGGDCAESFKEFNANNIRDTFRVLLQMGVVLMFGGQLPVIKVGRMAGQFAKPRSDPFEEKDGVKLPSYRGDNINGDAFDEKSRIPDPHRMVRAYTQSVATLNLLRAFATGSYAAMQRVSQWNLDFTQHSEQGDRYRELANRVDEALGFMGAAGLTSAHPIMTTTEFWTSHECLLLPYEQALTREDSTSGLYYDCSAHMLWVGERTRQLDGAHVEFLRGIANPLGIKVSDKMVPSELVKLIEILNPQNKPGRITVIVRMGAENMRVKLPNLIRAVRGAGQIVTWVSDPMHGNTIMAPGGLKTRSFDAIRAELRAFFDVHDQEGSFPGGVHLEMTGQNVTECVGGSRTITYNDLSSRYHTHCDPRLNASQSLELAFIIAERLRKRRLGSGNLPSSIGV
T6 sequence (Q00218 34-507 G222S): as above
T7 sequence (Q00218 34-507 L136F): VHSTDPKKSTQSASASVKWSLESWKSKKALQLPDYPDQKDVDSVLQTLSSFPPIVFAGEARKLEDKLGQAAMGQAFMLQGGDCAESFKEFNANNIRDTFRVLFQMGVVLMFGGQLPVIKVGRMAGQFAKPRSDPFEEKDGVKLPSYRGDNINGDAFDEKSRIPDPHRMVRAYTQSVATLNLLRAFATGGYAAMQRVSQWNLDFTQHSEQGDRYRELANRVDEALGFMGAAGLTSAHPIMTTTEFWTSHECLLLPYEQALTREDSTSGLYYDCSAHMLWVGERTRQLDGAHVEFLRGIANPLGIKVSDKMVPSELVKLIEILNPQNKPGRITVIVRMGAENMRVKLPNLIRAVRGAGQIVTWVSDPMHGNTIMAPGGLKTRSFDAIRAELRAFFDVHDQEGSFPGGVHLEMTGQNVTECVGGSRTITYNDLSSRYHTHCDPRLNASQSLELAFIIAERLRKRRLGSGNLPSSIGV
T3 sequence (P29976 49-525 G244R): as the sequence (P29976 49-525 G244R) above

Nc1ccccc1C(=O)[O-].[Na+] [Anthranilate]
effect on DHS1 activity (effector screening) (DHS1^WT [1]): did not affect the activity | effect on DHS2 activity (effector screening) (DHS2^WT [2]): slight reduction

O=C(O)/C=C/c1ccc(O)c(O)c1 [Caffeate]
IC50 (DHS1^WT [3]; read-out: IC50 of effector molecule on DHS1^WT): 108 µM | IC50 [4]: 65.2 µM | inhibition of DHS1^B4 activity (DHS1^B4): still strongly inhibited | IC50 (DHS1^B4; read-out: IC50 of effector molecule on DHS1^B4): 0.0652 mM

O=C(O)Cc1c[nH]c2ccccc12 [IAA, indole-3-acetate]
effect on DHS1 activity (effector screening) (DHS1^WT [1]): inhibit | effect on DHS2 activity (effector screening) (DHS2^WT [2]): inhibit

O=C(O)CCc1c[nH]c2ccccc12 [Indole-3-propionic acid]
IC50 (DHS1^WT [1]): 2.06 mM | IC50 (DHS1^B4): 2 mM

N[C@@H](Cc1ccccc1)C(=O)O [Phe, phenylalanine]
effect on melting temperature (Tm) / binding of DHS2^A4 (DHS2^A4): no impact on the Tm | effect on melting temperature (Tm) of DHS2^WT (DHS2^WT [5]): no impact on the Tm

N[C@@H](Cc1ccc(O)cc1)C(=O)O [Tyr, tyrosine]
IC50 of effector molecule on DHS1^WT (DHS1^WT [3]): Not inhibited | binding (DSF) [6]: still binds Tyr and Trp | inhibition of DHS2^F1 activity (DHS2^F1): not inhibited | inhibition of DHS2^A11 activity (DHS2^A11): not inhibited | IC50 of effector molecule on DHS3^WT (DHS3^WT): Not inhibited | IC50 of effector molecule on DHS3^G1 (DHS3^G1): Not inhibited | IC50 of effector molecule on DHS1^B4 (DHS1^B4; recombinant enzyme): Not inhibited | IC50 of effector molecule on DHS3^H1 (DHS3^H1): Not inhibited | inhibition of DHS2 [7]: inhibit Arabidopsis DHS2
